Assay results from PubChem BioAssay AID1963853 (Molecular Pharmacology Branch, DTP, NCI, 2024).

Tested on: 266295-075-R-J1-PDC spheroid viability
Assay: Anticancer human tumor 266295-075-R-J1-PDC patient-derived head and neck squamous carcinoma cell line growth inhibition [POLQ]
Details: spheroids with HUVEC and MSC; for IC50: curve of first compound; for viability, T/C: stronger effect = lower value
Method in brief: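 Complex spheroid viability model combining PDC tumour cells with endothelial (HUVEC) and MSC stromal cells. Novobiocin, ART-558 or RP6685 were tested singly and in combination with standard and investigational anticancer drugs. Each was titrated in half-log steps from near clinical Cmax, or from 10 microM where Cmax was unknown.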

[1] = second compound 0.0316 µM, first compound 0.0316 µM
[2] = second compound 0.0316 µM, first compound 0.1 µM
[3] = second compound 0.0316 µM, first compound 0.316 µM
[4] = second compound 0.0316 µM, first compound 1 µM
[5] = second compound 0.0316 µM, first compound 3.16 µM
[6] = second compound 0.0316 µM, first compound 10 µM
[7] = second compound 0.1 µM, first compound 0.0316 µM
[8] = second compound 0.1 µM, first compound 0.1 µM
[9] = second compound 0.1 µM, first compound 0.316 µM
[10] = second compound 0.1 µM, first compound 1 µM
[11] = second compound 0.1 µM, first compound 3.16 µM
[12] = second compound 0.1 µM, first compound 10 µM
[13] = second compound 0.316 µM, first compound 0.0316 µM
[14] = second compound 0.316 µM, first compound 0.1 µM
[15] = second compound 0.316 µM, first compound 0.316 µM
[16] = second compound 0.316 µM, first compound 1 µM
[17] = second compound 0.316 µM, first compound 3.16 µM
[18] = second compound 0.316 µM, first compound 10 µM
[19] = second compound 1 µM, first compound 0.0316 µM
[20] = second compound 1 µM, first compound 0.1 µM
[21] = second compound 1 µM, first compound 0.316 µM
[22] = second compound 1 µM, first compound 1 µM
[23] = second compound 1 µM, first compound 3.16 µM
[24] = second compound 1 µM, first compound 10 µM
[25] = second compound 3.16 µM, first compound 0.0316 µM
[26] = second compound 3.16 µM, first compound 0.1 µM
[27] = second compound 3.16 µM, first compound 0.316 µM
[28] = second compound 3.16 µM, first compound 1 µM
[29] = second compound 3.16 µM, first compound 3.16 µM
[30] = second compound 3.16 µM, first compound 10 µM
[31] = second compound 10 µM, first compound 0.0316 µM
[32] = second compound 10 µM, first compound 0.1 µM
[33] = second compound 10 µM, first compound 0.316 µM
[34] = second compound 10 µM, first compound 1 µM
[35] = second compound 10 µM, first compound 3.16 µM
[36] = second compound 10 µM, first compound 10 µM
[37] = second compound 0.0316 µM, first compound 0.00316 µM
[38] = second compound 0.0316 µM, first compound 0.01 µM
[39] = second compound 0.1 µM, first compound 0.00316 µM
[40] = second compound 0.1 µM, first compound 0.01 µM
[41] = second compound 0.316 µM, first compound 0.00316 µM
[42] = second compound 0.316 µM, first compound 0.01 µM
[43] = second compound 1 µM, first compound 0.00316 µM
[44] = second compound 1 µM, first compound 0.01 µM
[45] = second compound 3.16 µM, first compound 0.00316 µM
[46] = second compound 3.16 µM, first compound 0.01 µM
[47] = second compound 10 µM, first compound 0.00316 µM
[48] = second compound 10 µM, first compound 0.01 µM
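Note: spheroids exposed to compounds for seven days before readout.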

CC1COCCN1c1cc(C2(S(C)(=N)=O)CC2)nc(-c2ccnc3[nH]ccc23)n1 (stereo not drawn) + Cc1cccc(N(C)C(=O)C2C(O)CCN2c2nc(C)cc(C(F)(F)F)c2C#N)c1
IC50 (second compound 0.0316 µM): > 10000 nM
IC50 (second compound 0.1 µM): > 10000 nM
IC50 (second compound 0.316 µM): > 10000 nM
IC50 (second compound 1 µM): 9310 nM
IC50 (second compound 3.16 µM): > 10000 nM
IC50 (second compound 10 µM): > 10000 nM
viability, T/C [1]: 101%
viability, T/C [2]: 83.2%
viability, T/C [3]: 87%
viability, T/C [4]: 79.8%
viability, T/C [5]: 81.3%
viability, T/C [6]: 57%
viability, T/C [7]: 95.2%
viability, T/C [8]: 83.5%
viability, T/C [9]: 79.3%
viability, T/C [10]: 86.8%
viability, T/C [11]: 72.1%
viability, T/C [12]: 55.1%
viability, T/C [13]: 89.8%
viability, T/C [14]: 98.6%
viability, T/C [15]: 111%
viability, T/C [16]: 81.4%
viability, T/C [17]: 75.8%
viability, T/C [18]: 56.7%
viability, T/C [19]: 94.4%
viability, T/C [20]: 100%
viability, T/C [21]: 96.8%
viability, T/C [22]: 82.5%
viability, T/C [23]: 69.8%
viability, T/C [24]: 48.5%
viability, T/C [25]: 103%
viability, T/C [26]: 93.6%
viability, T/C [27]: 81.4%
viability, T/C [28]: 89.3%
viability, T/C [29]: 72.5%
viability, T/C [30]: 55.2%
viability, T/C [31]: 92.8%
viability, T/C [32]: 98.1%
viability, T/C [33]: 97.1%
viability, T/C [34]: 94.3%
viability, T/C [35]: 74.2%
viability, T/C [36]: 56.2%

COc1ccc([C@@H](O)c2cc(-c3ncnc4cc(N5CCOCC5)ccc34)c(F)cc2Cl)nn1 + Cc1cccc(N(C)C(=O)C2C(O)CCN2c2nc(C)cc(C(F)(F)F)c2C#N)c1
IC50 (second compound 0.0316 µM): 3950 nM
IC50 (second compound 0.1 µM): 2460 nM
IC50 (second compound 0.316 µM): 2640 nM
IC50 (second compound 1 µM): 2700 nM
IC50 (second compound 3.16 µM): 3940 nM
IC50 (second compound 10 µM): 5670 nM
viability, T/C [1]: 102%
viability, T/C [2]: 82.1%
viability, T/C [3]: 73.5%
viability, T/C [4]: 73.9%
viability, T/C [5]: 47.3%
viability, T/C [6]: 40.5%
viability, T/C [7]: 90.2%
viability, T/C [8]: 86.5%
viability, T/C [9]: 81.5%
viability, T/C [10]: 71%
viability, T/C [11]: 43%
viability, T/C [12]: 39.9%
viability, T/C [13]: 101%
viability, T/C [14]: 112%
viability, T/C [15]: 91.4%
viability, T/C [16]: 62.7%
viability, T/C [17]: 53.2%
viability, T/C [18]: 38.9%
viability, T/C [19]: 81.8%
viability, T/C [20]: 94.2%
viability, T/C [21]: 69.3%
viability, T/C [22]: 76.6%
viability, T/C [23]: 45.3%
viability, T/C [24]: 39.1%
viability, T/C [25]: 85.3%
viability, T/C [26]: 80.9%
viability, T/C [27]: 76%
viability, T/C [28]: 66.2%
viability, T/C [29]: 53.3%
viability, T/C [30]: 36.5%
viability, T/C [31]: 115%
viability, T/C [32]: 92.4%
viability, T/C [33]: 89%
viability, T/C [34]: 69%
viability, T/C [35]: 53.7%
viability, T/C [36]: 44.8%

COc1cccc(OCCCN)c1-c1cc(Nc2cnc(C#N)cn2)n[nH]1 + Cc1cccc(N(C)C(=O)C2C(O)CCN2c2nc(C)cc(C(F)(F)F)c2C#N)c1
IC50 (second compound 0.0316 µM): > 1000 nM
IC50 (second compound 0.1 µM): > 1000 nM
IC50 (second compound 0.316 µM): > 1000 nM
IC50 (second compound 1 µM): 985 nM
IC50 (second compound 3.16 µM): > 1000 nM
IC50 (second compound 10 µM): > 1000 nM
viability, T/C [37]: 128%
viability, T/C [38]: 127%
viability, T/C [1]: 87.2%
viability, T/C [2]: 80%
viability, T/C [3]: 81.7%
viability, T/C [4]: 72%
viability, T/C [39]: 101%
viability, T/C [40]: 101%
viability, T/C [7]: 83.3%
viability, T/C [8]: 76.3%
viability, T/C [9]: 79.1%
viability, T/C [10]: 62%
viability, T/C [41]: 109%
viability, T/C [42]: 90.7%
viability, T/C [13]: 68%
viability, T/C [14]: 71.1%
viability, T/C [15]: 72.1%
viability, T/C [16]: 63.9%
viability, T/C [43]: 127%
viability, T/C [44]: 85.5%
viability, T/C [19]: 89.8%
viability, T/C [20]: 75.1%
viability, T/C [21]: 66.7%
viability, T/C [22]: 50.1%
viability, T/C [45]: 106%
viability, T/C [46]: 101%
viability, T/C [25]: 77.7%
viability, T/C [26]: 77.7%
viability, T/C [27]: 75.2%
viability, T/C [28]: 64.8%
viability, T/C [47]: 107%
viability, T/C [48]: 108%
viability, T/C [31]: 81.5%
viability, T/C [32]: 74.3%
viability, T/C [33]: 58.5%
viability, T/C [34]: 75.3%

Cn1ncnc1[C@H]1c2n[nH]c(=O)c3cc(F)cc(c23)N[C@@H]1c1ccc(F)cc1 + Cc1cccc(N(C)C(=O)C2C(O)CCN2c2nc(C)cc(C(F)(F)F)c2C#N)c1
IC50 (second compound 0.0316 µM): > 100 nM
IC50 (second compound 0.1 µM): > 100 nM
IC50 (second compound 0.316 µM): > 100 nM
IC50 (second compound 1 µM): > 100 nM
IC50 (second compound 3.16 µM): > 100 nM
IC50 (second compound 10 µM): > 100 nM
viability, T/C (second compound 0.0316 µM, first compound 0.000316 µM): 88.2%
viability, T/C (second compound 0.0316 µM, first compound 0.001 µM): 93.7%
viability, T/C [37]: 84.3%
viability, T/C [38]: 109%
viability, T/C [1]: 100%
viability, T/C [2]: 96.5%
viability, T/C (second compound 0.1 µM, first compound 0.000316 µM): 99.4%
viability, T/C (second compound 0.1 µM, first compound 0.001 µM): 104%
viability, T/C [39]: 85.4%
viability, T/C [40]: 115%
viability, T/C [7]: 90%
viability, T/C [8]: 87.9%
viability, T/C (second compound 0.316 µM, first compound 0.000316 µM): 108%
viability, T/C (second compound 0.316 µM, first compound 0.001 µM): 99.2%
viability, T/C [41]: 99.1%
viability, T/C [42]: 104%
viability, T/C [13]: 95.7%
viability, T/C [14]: 99.7%
viability, T/C (second compound 1 µM, first compound 0.000316 µM): 103%
viability, T/C (second compound 1 µM, first compound 0.001 µM): 122%
viability, T/C [43]: 89%
viability, T/C [44]: 97.1%
viability, T/C [19]: 113%
viability, T/C [20]: 75.8%
viability, T/C (second compound 3.16 µM, first compound 0.000316 µM): 94.1%
viability, T/C (second compound 3.16 µM, first compound 0.001 µM): 96.7%
viability, T/C [45]: 85.2%
viability, T/C [46]: 118%
viability, T/C [25]: 104%
viability, T/C [26]: 104%
viability, T/C (second compound 10 µM, first compound 0.000316 µM): 119%
viability, T/C (second compound 10 µM, first compound 0.001 µM): 104%
viability, T/C [47]: 101%
viability, T/C [48]: 105%
viability, T/C [31]: 109%
viability, T/C [32]: 114%
